Assay: Solubility and compatibility of lidocaine and lidocaine HCl at 40% w/w in solvent blends
Format: physicochemical
Conditions: two weeks at accelerated conditions versus initial
Protocol: The solubility and compatibility of lidocaine and lidocaine HCl in solvents typically used in topical pharmaceutical products was assessed in order to direct the formulation development efforts.
Initially, the solubility of lidocaine and lidocaine hydrochloride was evaluated in single solvents with varying lipophilicity. […] Based on the single solvent data, a compatibility study was initiated to evaluate the chemical stability of the drug at a concentration of 40% w/w in a variety of solvent blends that would form the base of potential prototype gel or cream formulations.

CCN(CC)CC(=O)Nc1c(C)cccc1C [lidocaine]
Physical appearance and chemical compatibility in solvent blends: retained their physical appearance
